Tested on: c-KIT 1 (DNA, G4) AGGGAGGGCGCTGGGAGGAGGG
Test: CD melting at 265 nm
Conditions: 10 mM KCl, 90 mM LiCl; 10 mM Tris-HCl, pH 7.2; 2 µM DNA, 3 eq ligand; 1 °C/min

ΔTm [°C] | SMILES
8.4 | CC[n+]1c(/C=C/c2ccc3c(c2)c2ccccc2n3CCCCn2ccnc2)sc2ccccc21
5.4 | CC[n+]1c(/C=C/c2ccc3c(c2)c2ccccc2n3CCCCn2cncn2)sc2ccccc21
5.9 | CCn1c2ccccc2c2cc(/C=C/c3sc4ccccc4[n+]3CC)ccc21
